Test results: patent publication US7279183B2, “Method of reducing thrombosis and complications after arterial angioplasty using stent coated with magnesium-based compound” (Cedars-Sinai Medical Center, priority 2001, dated 2007)
Like-named read-outs stand apart in the source and are kept apart here.

How the values were obtained:
platelet aggregation = assay: whole blood aggregometry, agonist-induced platelet aggregation; type: cell-based, swine; settings: for platelet aggregation: 3 pigs
Method: Thirty minutes after administration of the heparin (in the heparin alone) or magnesium, 3 mL venous blood was collected in a siliconized test tube containing 0.3 mL of 0.129 molar sodium citrate or sodium heparin (Becton Dickinson Vacutainer System). Whole blood aggregometry (Chronolog Corp.) was used to measure collagen (2 and 5 μg/mL)- and Adenosine diphosphate (2.5 μM)-induced platelet aggregation. Aggregation was expressed as maximal increase in electrical impedance measured in ohms at 6 minutes after the addition of agonist.

[1] = bleeding time from thigh incision; type: in vivo, swine
Method: Bleeding time is defined as the time from the creation of an incision to the point where bleeding from the incision ceases. In the experiment according to one embodiment of the present invention discussed herein, bleeding time was measured from an incision on the ventral surface of the thigh with a No. 11 surgical knife.

[2] = activated clotting time (ACT), Hemochron 400; type: in vivo, swine
Method: In the experiment discussed herein that was conducted according to one embodiment of the present invention, ACT was determined using a Hemochron 400 (International Technidyne Corp.) machine in standard fashion. See Makkar R R, Litvack F, Eigler N L, Nakamura M, Ivey P A, Forrester J S, Shah P K, Jordan R E, Kaul S, Effects of GP IIb/IIIa Receptor Monoclonal Antibody (7E3), Heparin, and Aspirin in an Ex Vivo Canine Arteriovenous Shunt Model of Stent Thrombosis, Circulation, 1997; 95(4): 1015-1021; and Makkar R R, Eigler N L, Kaul S, Nakamura M, Forrester J S, Herbert J-M, Litvack F I, Effects of clopidogrel, aspirin and combined therapy in a porcine ex vivo model of high-shear induced stent thrombosis, Eur Heart J, 1998; 19:1538-1546.

[3] = serum magnesium level, magon dye method; type: in vivo, swine; settings: in words, FIG. 5
Method: Serum magnesium levels for the test subjects were measured spectrophotometrically using the magon dye method. See Elm R J, Determination of serum magnesium concentration by clinical laboratories, […], 1991-92:60-6.

[4] = magnesium sulfate intravenously, ANOVA
Method: The graph in FIG. 3 was generated by taking between 10 and 14 observations at each time point. The MABP was measured in millimeters of mercury (mmHg). The heart rate was measured in beats per minute (BPM).

[5] = Method: (§1) Twenty one low-risk patients undergoing non-acute percutaneous coronary intervention with stent implantation received a two gm bolus of intravenous MgSO4 followed by a 1.5 gm/hour infusion for four hours and a 1 gm/hour infusion for the next eight hours. […] The preset primary endpoints for this experiment were: acute thrombotic occlusion and need for platelet IIb/IIIa inhibitors bailout, death, myocardial infarction, recurrent ischemia and need for urgent revascularization at 48 hours and 30 days. The secondary safety endpoints included hypotension, bradycardia, bleeding complications and heart block within the first 24 hours.
in-stent thrombosis = tested on: in-stent thrombosis
Method: as §1

platelets = settings: cited from earlier work
[6] = complete blood cell count; settings: data not shown
[7] = tested on: acute platelet-dependent stent thrombosis; assay: ex-vivo porcine arteriovenous shunt model of high-shear stent thrombosis (thrombus weight); type: in vivo, swine
Method: An experiment according to one embodiment of the present invention was performed using an ex-vivo model that primarily examines shear-mediated, platelet-dependent thrombus formation. This experiment allowed for the evaluation of the effects of magnesium, and the time-dependent nature thereof, on acute platelet-dependent stent thrombosis in an ex-vivo porcine arteriovenous shunt model of high-shear blood flow.
(§2) Experiments were performed in 10 swine weighing 25 to 30 kg. […] The right carotid artery and jugular vein were isolated and cannulated with 8F sheaths to establish an extracorporeal circuit as described previously. […] Arterial blood gases and pH were monitored periodically and maintained at normal levels by adjustment of the ventilation rate and tidal volume. Invasive arterial pressure measurement, oxygen saturation, ECG, and rectal temperature were monitored continuously. A thermostatically controlled blanket was used to maintain temperature at 37° C. Venous blood was collected for baseline platelet aggregation, complete blood cell count, and activated clotting time (ACT) measurements.
All animals received heparin at a dose of 10 U/kg as a bolus before the study to prevent thrombotic occlusion of catheters and tubing. […]

[8] = in vivo
Method: as §2
All animals received heparin at a dose of 10 U/kg as a bolus before the study to prevent thrombotic occlusion of catheters and tubing. […] At the conclusion of the experiment, blood was collected for complete blood cell counts, the carotid artery and jugular vein were ligated, and the animals were allowed to recover from anesthesia before being returned to the vivarium. Each animal was studied twice with a minimum interval of 2 weeks between each experiment.
At the end of each treatment, control stents were perfused to ensure return of stent thrombus weights towards baseline pre-treatment values. Effects on thrombus weight (TW), whole-blood platelet aggregation (PA), bleeding time (BT), activated clotting time (ACT), serum magnesium level, and complete blood count (CBC) were quantified at various time points as shown in the protocol schematic. Mean arterial blood pressure (MABP) and heart rate (HR) were monitored and recorded throughout the protocol.

[9] = tested on: acute platelet-dependent stent thrombosis; settings: 10 U/kg bolus, average of 200 U per swine; cited from earlier work
[10] = in words, beyond the heparin effect

Q: Which “effect on platelet aggregation” value (platelet aggregation; ADP (2.5 μM), data not shown) does the source give for `O=S(=O)([O-])[O-].[Mg+2]` [Mg, magnesium sulfate] here?
A: Its value is “no effect”.

Q: What about the whole-blood platelet aggregation (platelet aggregation; FIG. 5, 5 μg/mL collagen, with addition of magnesium, from 25±3, not significant) of the same molecule?
A: The whole-blood platelet aggregation was 21±5 ohms.

Q: What about the “platelet aggregation (maximal increase in electrical impedance)” value (platelet aggregation; Mg-late alone, 6 minutes after agonist, baseline 25±3) of the same molecule?
A: The value was 22±3 ohms.

Q: What about the “platelet aggregation (maximal increase in electrical impedance)” value (platelet aggregation; Mg-treated animals, >40 minutes post-bolus (Mg-late)) of the same molecule?
A: The value was 21.0±5 ohms.

Q: What about the “platelet aggregation (maximal increase in electrical impedance)” value (platelet aggregation; Mg-treated animals, within 20 minutes post-bolus (Mg-early)) of the same molecule?
A: The value was 23±4 ohms.

Q: What about the platelet aggregation (platelet aggregation; citrate-stabilized blood, post-Mg (25±3 pre)) of the same molecule?
A: The platelet aggregation was 22±3 ohms.

Q: What about the “effect on platelet aggregation” value (platelet aggregation; collagen 2 μg/ml, data not shown) of the same molecule?
A: The value was “no effect”.

Q: And the platelet aggregation (platelet aggregation; heparin-stabilized samples, post-Mg (26±2 pre))?
A: The platelet aggregation was 27±2 ohms.

Q: What about the “effect on platelet aggregation” value (platelet aggregation; in words, listed as Magnesium) of the same molecule?
A: The value was “no significant effects”.

Q: And the “effect on platelet aggregation” value (platelet aggregation; in words, listed as magnesium)?
A: Its value is “no significant effect”.

Q: And the “effect on bleeding time” value [1, 10]?
A: Its value is “no significant effects”.

Q: And the “effect on activated clotting time (ACT)” value [2, 10]?
A: The value was “no significant effects”.

Q: What about the “serum magnesium levels compared to control” value [3] of the same molecule?
A: The value was “higher”.

Q: And the “effect on heart rate” value ([4]; listed as Magnesium)?
A: Its value is “no significant effects”.

Q: What about the “effect on mean arterial blood pressure (MABP)” value ([4]; listed as Magnesium) of the same molecule?
A: The value was “no significant effects”.

Q: What about the “effect on heart rate” value ([4]; listed as magnesium) of the same molecule?
A: The value was “no statistically significant effects”.

Q: And the “effect on mean arterial blood pressure (MABP)” value ([4]; listed as magnesium)?
A: Its value is “no statistically significant effects”.

Q: And the “effect on heart rate” value ([5]; patients, IV MgSO4)?
A: Its value is “did not have a significant effect”.

Q: And the “effect on mean arterial blood pressure” value ([5]; patients, IV MgSO4)?
A: The value was “did not have a significant effect”.

Q: And the serum magnesium level ([5]; post-bolus (2 gm IV MgSO4), baseline 2.1±0.3, P<0.0001)?
A: Its serum magnesium level is 3.2 ± 0.3 mg/dL.

Q: What about the serum magnesium level ([5]; post-infusion (total 16 gm)) of the same molecule?
A: The serum magnesium level was 3.5 ± 0.8 mg/dL.

Q: And the “GP IIb/IIIa inhibitors bailout” value (in-stent thrombosis; 21 patients)?
A: The value was “no case”.

Q: And the death (in-stent thrombosis; 21 patients)?
A: Its death is “not seen”.

Q: What about the myocardial infarction (in-stent thrombosis; 21 patients) of the same molecule?
A: Its myocardial infarction is “not seen”.

Q: What about the urgent revascularization (in-stent thrombosis; 21 patients) of the same molecule?
A: Its urgent revascularization is “not seen”.

Q: What about the “coronary artery blood flow at end of intervention” value (in-stent thrombosis; all cases, 21 patients) of the same molecule?
A: Its value is “normal coronary artery blood flow (TIMI 3 flow)”.

Q: What about the “hemostatic or hemodynamic complications” value (in-stent thrombosis; human subjects) of the same molecule?
A: Its value is “without any hemostatic or hemodynamic complications”.

Q: What about the “concentration at which anti-adhesive effect may occur” value (platelets) of the same molecule?
A: The value was < 4 mEq/L.

Q: And the “concentration at which anti-aggregatory effect may occur” value (platelets)?
A: The value was > 5 mEq/L.

Q: What about the effect on hematocrit [6] of the same molecule?
A: Its effect on hematocrit is “no significant effects”.

Q: And the “effect on platelet counts” value [6]?
A: Its value is “no significant effects”.

Q: And the “effect on white blood cell counts” value [6]?
A: The value was “no significant effects”.

Q: With heparin as the molecule, how does the “effect on thrombus formation (FIG. 2(a))” value ([7]; given alone, magnesium both early and late groups) read?
A: The value was “reduce thrombus formation slightly”.

Q: And the “reduction of stent thrombus weight (TW)” value ([7]; heparin alone, 50 U/kg IV bolus then 25-50 U/kg/hr, versus pre-treatment, mean±SD)?
A: Its value is 48±16%.

Q: What about the “platelet aggregation (maximal increase in electrical impedance)” value (platelet aggregation; heparin alone, 6 minutes after agonist, baseline 25±3) of the same molecule?
A: Its value is 24±6 ohms.

Q: What about the bleeding time ([1]; in vivo) of the same molecule?
A: Its bleeding time is 5.3±0.6.

Q: And the ACT ([2]; prolonged from 109±8 seconds, P<0.01)?
A: Its ACT is 185 ± 36 s.

Q: And the effect on hematocrit [8]?
A: Its effect on hematocrit is “no significant effects”.

Q: And the “effect on platelet counts” value [8]?
A: Its value is “no significant effects”.

Q: What about the “effect on white blood cell counts” value [8] of the same molecule?
A: Its value is “no significant effects”.

Q: And the “effect on thrombus formation at high-shear conditions” value [9]?
A: Its value is “negligible effects”.
